Assay results reported in the NIST ThermoML archive (doi:10.1016/j.tca.2006.10.008).
Values joined by “and” are separate entries in the source; they are usually repeats but may differ in a detail not shown here. Identical values can stand only once.

Conditions: for vapor or sublimation pressure: Transpiration method; for Triple point temperature: DTA

F[B-](F)(F)F.[Rb+] [rubidium tetrafluoroborate]
Crystal 1
Conditions	vapor or sublimation pressure
550 K	3.93e-05 kPa
555 K	5.32e-05 kPa
566 K	6.47e-05 kPa
576 K	9.73e-05 kPa
581 K	9.94e-05 kPa
592 K	0.0001394 kPa
602 K	0.0001641 kPa
613 K	0.0002173 kPa
622 K	0.0002867 kPa and 0.000287 kPa and 0.0002854 kPa
629 K	0.0003005 kPa
641 K	0.0004209 kPa
655 K	0.0005109 kPa
676 K	0.0007892 kPa
697 K	0.001082 kPa

Conditions	Triple point temperature [K]
Crystal 2	527

F[B-](F)(F)F.[Na+] [sodium tetrafluoroborate]
vapor or sublimation pressure
Conditions	Crystal 1	Crystal 2
483 K	–	0.0002215 kPa
493 K	–	0.0003008 kPa
498 K	–	0.0003479 kPa
503 K	–	0.0003963 kPa
519 K	0.0006401 kPa	0.0006401 kPa
523 K	0.0008727 kPa	–
533 K	0.001184 kPa	–
544 K	0.001662 kPa	–
545 K	0.001475 kPa	–
554 K	0.001848 kPa [middle of 5 runs]	–
566 K	0.002561 kPa	–
575 K	0.002638 kPa	–
576 K	0.003027 kPa	–
580 K	0.003513 kPa	–
586 K	0.003838 kPa	–
602 K	0.003513 kPa	–
612 K	0.005891 kPa	–
622 K	0.008782 kPa	–
663 K	0.01582 kPa	–

Conditions	Triple point temperature [K]
Crystal 2	519

F[B-](F)(F)F.[Cs+] [cesium tetrafluoroborate]
Crystal 1
Conditions	vapor or sublimation pressure
586 K	3.63e-05 kPa
592 K	4.17e-05 kPa
602 K	6.62e-05 kPa
608 K	8.43e-05 kPa
611 K	8.34e-05 kPa
623 K	0.0001414 kPa
627 K	0.0001287 kPa [middle of 4 runs]
634 K	0.0001822 kPa
648 K	0.0002611 kPa
654 K	0.0003472 kPa
666 K	0.0003572 kPa
682 K	0.0005593 kPa
692 K	0.0007727 kPa
703 K	0.0008954 kPa
705 K	0.000949 kPa

Conditions	Triple point temperature [K]
Crystal 2	442
